Measurements published in US9783527B2, “Indazole ureas and method of use” (AbbVie Inc., priority 2014, dated 2017).

Tests used:
human Nav1.7 = human Nav1.7 (Homo sapiens (Human), UniProt Q15858); assay: FRET-based membrane potential assay, recombinant human sodium channel Nav1.7; assay type: cell-based; details: HEK293 cells stably expressing recombinant human Nav1.7; depolarization with veratridine (EC80) + scorpion venom
How it was run: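 IC50 derived by four-parameter Hill fit of percent inhibition of depolarization, measured as peak F440-480/F565-625 ratio over baseline. Stable human Nav1.7 HEK293 cells, dye-loaded with CC2-DMPE and DiSBAC2(3)/VABSC-1 at room temperature, received compound 3 min ahead of veratridine (EC80) plus scorpion venom.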

human Nav1.8 = human Nav1.8 (Homo sapiens (Human), UniProt Q9Y5Y9); assay: FRET-based membrane potential assay, recombinant human sodium channel Nav1.8; assay type: cell-based; details: HEK293 cells stably expressing recombinant human Nav1.8; depolarization with veratridine (EC80) + scorpion venom
human Nav1.8, sequence (Q9Y5Y9 whole entry): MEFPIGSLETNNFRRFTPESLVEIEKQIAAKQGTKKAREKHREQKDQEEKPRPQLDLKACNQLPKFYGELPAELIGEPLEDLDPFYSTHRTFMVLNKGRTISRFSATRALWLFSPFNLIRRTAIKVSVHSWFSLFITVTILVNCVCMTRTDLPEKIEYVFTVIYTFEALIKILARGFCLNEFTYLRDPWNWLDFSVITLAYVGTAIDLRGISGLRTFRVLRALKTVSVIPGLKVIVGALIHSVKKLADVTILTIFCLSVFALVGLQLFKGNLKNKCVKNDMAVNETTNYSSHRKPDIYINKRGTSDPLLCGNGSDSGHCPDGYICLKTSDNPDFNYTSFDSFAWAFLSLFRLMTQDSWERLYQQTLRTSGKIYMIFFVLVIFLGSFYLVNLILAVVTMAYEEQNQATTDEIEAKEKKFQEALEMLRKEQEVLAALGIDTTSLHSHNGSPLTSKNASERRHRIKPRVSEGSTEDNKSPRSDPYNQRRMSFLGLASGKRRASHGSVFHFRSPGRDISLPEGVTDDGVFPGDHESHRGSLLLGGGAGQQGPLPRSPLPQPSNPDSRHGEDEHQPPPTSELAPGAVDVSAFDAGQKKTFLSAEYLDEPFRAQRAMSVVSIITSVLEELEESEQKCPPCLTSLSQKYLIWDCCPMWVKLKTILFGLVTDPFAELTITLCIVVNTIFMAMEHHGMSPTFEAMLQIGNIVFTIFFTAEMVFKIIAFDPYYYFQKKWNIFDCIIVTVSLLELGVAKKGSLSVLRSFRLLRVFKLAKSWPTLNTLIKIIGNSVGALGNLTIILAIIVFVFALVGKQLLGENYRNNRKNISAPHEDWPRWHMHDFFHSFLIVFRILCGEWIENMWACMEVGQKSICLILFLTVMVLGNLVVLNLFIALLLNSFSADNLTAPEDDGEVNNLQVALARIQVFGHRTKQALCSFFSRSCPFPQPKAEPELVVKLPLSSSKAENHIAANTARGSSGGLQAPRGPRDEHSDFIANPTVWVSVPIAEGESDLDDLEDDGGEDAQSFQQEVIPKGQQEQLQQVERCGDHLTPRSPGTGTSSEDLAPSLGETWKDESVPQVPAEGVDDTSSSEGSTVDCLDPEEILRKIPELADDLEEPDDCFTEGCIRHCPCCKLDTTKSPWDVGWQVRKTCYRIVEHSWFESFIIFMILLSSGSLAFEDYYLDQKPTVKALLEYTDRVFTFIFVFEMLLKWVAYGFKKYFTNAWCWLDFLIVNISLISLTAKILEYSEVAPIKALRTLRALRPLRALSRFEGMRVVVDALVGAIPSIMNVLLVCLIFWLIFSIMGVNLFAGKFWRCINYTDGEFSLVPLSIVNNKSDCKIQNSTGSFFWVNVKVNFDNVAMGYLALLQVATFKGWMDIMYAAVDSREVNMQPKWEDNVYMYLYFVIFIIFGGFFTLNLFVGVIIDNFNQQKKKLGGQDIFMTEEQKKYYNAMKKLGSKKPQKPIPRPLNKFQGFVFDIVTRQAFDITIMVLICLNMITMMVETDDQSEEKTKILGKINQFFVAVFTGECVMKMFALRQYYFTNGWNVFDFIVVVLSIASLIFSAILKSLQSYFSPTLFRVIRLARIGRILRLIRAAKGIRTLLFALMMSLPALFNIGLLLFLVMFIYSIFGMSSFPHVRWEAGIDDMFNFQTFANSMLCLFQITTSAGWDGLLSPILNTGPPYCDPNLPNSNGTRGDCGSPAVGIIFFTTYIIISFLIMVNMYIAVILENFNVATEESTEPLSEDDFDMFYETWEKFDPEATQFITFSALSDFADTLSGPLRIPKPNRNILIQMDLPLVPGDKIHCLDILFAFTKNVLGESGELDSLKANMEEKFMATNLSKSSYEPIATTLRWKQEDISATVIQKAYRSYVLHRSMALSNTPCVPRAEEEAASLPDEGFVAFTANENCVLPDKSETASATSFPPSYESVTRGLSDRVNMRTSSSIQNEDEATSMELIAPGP
How it was run: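 HEK293 cells stably expressing Nav1.8 were loaded with CC2-DMPE/DiSBAC2(3) FRET voltage dyes. Compounds were added 3 min before depolarization with EC80 veratridine plus scorpion venom. The F440-480/F565-625 ratio was read on FLIPR; IC50 came from four-parameter Hill fits.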

[1] = test system: MIA-induced osteoarthritic pain in rats; assay: Osteoarthritic (OA) pain induced by sodium monoiodoacetate (MIA), hind limb grip force; assay type: in vivo, rat; details: male Sprague Dawley rats, grip force 20 days after MIA injection
Description: Osteoarthritic (OA) Pain Induced by Sodium Monoiodoacetate (MIA)
Pain behavior was assessed by measurement of hind limb grip force (GF) in adult osteoarthritic rats. Male Sprague Dawley rats, obtained from Charles River Laboratories, (Wilmington, Mass.), weighing 150-175 g, were injected in the unilateral knee join with a single intra-articular injection of sodium monoiodoacetate (MIA, 3 mg/rat). All rats were tested at 20 days following MIA injection. A behavioral measure of activity-induced pain was carried out. Measurements of the peak hind limb grip force were conducted by recording the maximum compressive force (CFmax), in grams of force, exerted on a hind limb strain gauge setup, in a commercially available grip force measurement system (Columbus Instruments, Columbus, Ohio).
During testing, each rat was gently restrained by grasping it around its rib cage and then allowed to grasp the wire mesh frame attached to the strain gauge. The experimenter then moved the animal in a rostral-to-caudal direction until the grip was broken. Each rat was sequentially tested twice at an approximately 2-3 minute interval to obtain a raw mean grip force (CFmax). This raw mean grip force data was in turn converted to a maximum hindlimb cumulative compressive force (CFmax), as the grams of force/kg of body weight, for each animal.
For evaluating the compound effects, the hind limb grip force was conducted 20 days following the intra-articular injection of MIA. A group of age-matched nave (not injected with MIA) animals was added as a comparator to the drug-dosed groups. The vehicle control response for each group of MIA-treated animals was defined as the 0% response (0% effect), whereas the nave control group was defined as the normal response and as 100% effect. The % effect for each dose group was expressed as % return of response to normalcy, compared to the nave group. A percent maximal possible effect (% MPE) of testing compound was calculated according to the formula: (Treatment CFmax−Vehicle CFmax)/Vehicle CFmax]×100). Higher % effect numbers indicate increased relief from the pain in the model, with 100% indicating a return to the level of response seen in normal (non-osteoarthritic) animals. All experiments evaluating drug effects in this model were conducted in a randomized blinded fashion.
(§1) The animals were housed in Association for Assessment and Accreditation of Laboratory Animal Care (AAALAC) approved facilities at AbbVie Inc. in a temperature-regulated environment under a controlled 12-hour light-dark cycle, with lights on at 6:00 a.m. Food and water were available ad libitum at all times except during testing. All testing was done following procedures outlined in protocols approved by AbbVie Inc.'s Institutional Animal Care and Use Committee.

[2] = test system: spinal nerve ligation-induced neuropathic pain in rats; assay: Rat spinal nerve ligation (SNL) model of neuropathic pain, von Frey paw withdrawal threshold; assay type: in vivo; details: SNL dose 100 mg/kg; male Sprague Dawley rats, mechanical sensitivity (von Frey)
Description: Rat Spinal Nerve Ligation (SNL) Model of Neuropathic Pain.
A model of spinal nerve ligation-induced (SNL model) neuropathic pain as originally described by Kim and Chung (Kim, S. H. and J. M. Chung, 1992, Pain 50, 355) was used to test a compound of the present application. The male Sprague Dawley rats (Charles River Laboratories, Wilmington, Mass.), weighing 150-175 g at the time of surgery, were placed under isoflurane anesthesia and a 1.5 cm incision was made dorsal to the lumbosacral plexus. The paraspinal muscles (left side) were separated from the spinous processes, the left L5 and L6 spinal nerves isolated, and tightly ligated with 5-0 silk suture distal to the dorsal root ganglion. Care was taken to avoid ligating the L4 spinal nerve. Following spinal nerve ligation, a minimum of 7 days of recovery and no more than 3 weeks was allowed prior to the behavioral testing (mechanical sensitivity). Only rats with threshold scores ≦4.5 g were considered allodynic and utilized in pharmacological experiments.
Mechanical sensitivity was measured using calibrated von Frey filaments (Stoelting, Wood Dale, Ill.). Paw withdrawal threshold (PWT) was determined by using the Dixon's up-down method (Dixon, W. J., 1980, Ann. Rev. Pharmacol. Toxicol., 20, 441). Rats were placed into inverted individual plastic containers (20×12.5×20 cm) on top of a suspended wire mesh with a 1 cm^2 grid to provide access to the ventral side of the hind paws, and acclimated to the test chambers for 20 minutes. The von Frey filaments were presented perpendicularly to the plantar surface of the selected hind paw, and then held in this position for approximately 8 seconds with enough force to cause a slight bend in the filament. Positive responses included an abrupt withdrawal of the hind paw from the stimulus, or flinching behavior immediately following removal of the stimulus. A 50% withdrawal threshold was determined using an up-down procedure (Dixon, 1980). A percent maximal possible effect (% MPE) of testing compound was calculated according to the formula: (Log [compound-treated threshold]−Log [vehicle-treated threshold])/(Log [maximum threshold]−Log [vehicle-treated threshold])×100%, where the maximum threshold was equal to 15 g.
as §1, with “Inc.s'” for “Inc.'s”

human Nav1.7, sequence (Q15858 whole entry): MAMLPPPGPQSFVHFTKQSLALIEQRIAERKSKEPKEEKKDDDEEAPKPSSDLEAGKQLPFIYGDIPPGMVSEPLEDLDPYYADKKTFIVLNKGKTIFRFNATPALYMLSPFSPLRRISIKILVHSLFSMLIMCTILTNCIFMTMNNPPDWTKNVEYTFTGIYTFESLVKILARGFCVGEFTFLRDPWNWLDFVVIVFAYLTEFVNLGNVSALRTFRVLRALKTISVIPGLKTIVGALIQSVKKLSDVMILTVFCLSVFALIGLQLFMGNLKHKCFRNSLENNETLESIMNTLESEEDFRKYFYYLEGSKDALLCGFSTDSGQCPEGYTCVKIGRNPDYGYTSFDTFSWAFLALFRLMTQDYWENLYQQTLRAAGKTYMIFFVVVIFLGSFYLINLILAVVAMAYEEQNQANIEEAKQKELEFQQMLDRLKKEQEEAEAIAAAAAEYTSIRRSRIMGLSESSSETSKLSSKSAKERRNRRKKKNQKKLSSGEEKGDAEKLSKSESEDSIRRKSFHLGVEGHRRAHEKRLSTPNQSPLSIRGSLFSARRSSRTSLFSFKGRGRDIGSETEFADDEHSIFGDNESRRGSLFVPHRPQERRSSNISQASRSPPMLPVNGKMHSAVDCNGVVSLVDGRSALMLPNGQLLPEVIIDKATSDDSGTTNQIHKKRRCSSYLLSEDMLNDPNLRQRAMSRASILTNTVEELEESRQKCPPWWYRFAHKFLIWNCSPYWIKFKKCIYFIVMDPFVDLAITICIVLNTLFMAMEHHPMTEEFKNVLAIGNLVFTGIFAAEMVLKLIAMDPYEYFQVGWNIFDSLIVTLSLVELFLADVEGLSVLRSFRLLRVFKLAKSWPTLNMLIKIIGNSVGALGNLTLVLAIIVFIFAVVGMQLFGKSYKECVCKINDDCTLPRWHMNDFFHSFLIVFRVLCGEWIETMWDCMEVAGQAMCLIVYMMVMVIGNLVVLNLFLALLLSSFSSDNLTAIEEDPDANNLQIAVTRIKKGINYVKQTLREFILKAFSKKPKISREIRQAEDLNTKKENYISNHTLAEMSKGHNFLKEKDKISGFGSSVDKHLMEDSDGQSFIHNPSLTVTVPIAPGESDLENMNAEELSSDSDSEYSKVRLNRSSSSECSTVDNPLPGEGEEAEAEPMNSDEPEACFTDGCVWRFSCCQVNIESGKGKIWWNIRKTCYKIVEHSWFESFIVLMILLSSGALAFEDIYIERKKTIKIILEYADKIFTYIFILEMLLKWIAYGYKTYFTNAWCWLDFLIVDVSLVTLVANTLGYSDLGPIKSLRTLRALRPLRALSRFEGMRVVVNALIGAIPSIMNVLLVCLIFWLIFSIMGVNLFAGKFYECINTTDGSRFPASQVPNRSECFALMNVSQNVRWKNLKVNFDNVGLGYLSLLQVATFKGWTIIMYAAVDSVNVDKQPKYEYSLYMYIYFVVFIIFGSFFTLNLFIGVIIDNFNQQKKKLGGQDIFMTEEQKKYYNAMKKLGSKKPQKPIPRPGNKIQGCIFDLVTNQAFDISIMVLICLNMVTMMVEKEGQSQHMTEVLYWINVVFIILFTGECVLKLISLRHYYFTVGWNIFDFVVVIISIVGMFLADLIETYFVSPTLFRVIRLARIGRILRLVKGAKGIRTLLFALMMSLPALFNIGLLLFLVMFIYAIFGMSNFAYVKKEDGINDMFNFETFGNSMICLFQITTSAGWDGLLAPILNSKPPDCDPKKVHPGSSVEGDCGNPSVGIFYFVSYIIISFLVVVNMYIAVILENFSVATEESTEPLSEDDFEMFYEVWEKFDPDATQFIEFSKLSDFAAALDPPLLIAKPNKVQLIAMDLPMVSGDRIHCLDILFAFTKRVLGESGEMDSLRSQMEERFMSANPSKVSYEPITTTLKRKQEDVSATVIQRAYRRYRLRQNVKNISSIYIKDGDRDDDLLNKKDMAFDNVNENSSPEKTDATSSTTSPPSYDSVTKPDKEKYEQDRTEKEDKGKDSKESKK

CCOc1nnc(CN2CCN(c3cccc4c3cnn4-c3ccccc3F)C2=O)s1 [Example 47, 1-[(5-ethoxy-1,3,4-thiadiazol-2-yl)methyl]-3-[1-(2-fluorophenyl)-1H-indazol-4-yl]imidazolidin-2-one]
IC50 (human Nav1.7): 1490 nM | IC50 (human Nav1.8): 3980 nM | OA MPE (%) ([1]; OA dose 10 mg/kg): 19%

O=C1N(Cc2ccccn2)CCN1c1cccc2c1cnn2-c1ccccc1F [Example 12, 1-[1-(2-fluorophenyl)-1H-indazol-4-yl]-3-(pyridin-2-ylmethyl)imidazolidin-2-one]
IC50 (human Nav1.7): 1020 nM | IC50 (human Nav1.8): 321 nM | SNL MPE (%) [2]: 25%

O=C1N(Cc2nnc(C3CC3)o2)CCN1c1cccc2c1cnn2-c1ccccc1F [Example 49, 1-[(5-cyclopropyl-1,3,4-oxadiazol-2-yl)methyl]-3-[1-(2-fluorophenyl)-1H-indazol-4-yl]imidazolidin-2-one]
IC50 (human Nav1.7): 2320 nM | IC50 (human Nav1.8): 538 nM | OA MPE (%) ([1]; OA dose 10 mg/kg): 66%

O=C1N(c2cccc3c2cnn3-c2ccccc2F)CCN1[C@@H]1CCOC1 [Example 32, 1-[1-(2-fluorophenyl)-1H-indazol-4-yl]-3-[(3R)-tetrahydrofuran-3-yl]imidazolidin-2-one]
IC50 (human Nav1.7): 4230 nM | IC50 (human Nav1.8): 2540 nM | OA MPE (%) ([1]; OA dose 30 mg/kg): 65%

O=C1N(Cc2nnc(C3CCC3)o2)CCN1c1cccc2c1cnn2-c1ccccc1F [Example 50, 1-[(5-cyclobutyl-1,3,4-oxadiazol-2-yl)methyl]-3-[1-(2-fluorophenyl)-1H-indazol-4-yl]imidazolidin-2-one]
IC50 (human Nav1.7): 1530 nM | IC50 (human Nav1.8): 3080 nM | OA MPE (%) ([1]; OA dose 10 mg/kg): 7%

O=C(CN1CCN(c2cccc3c2cnn3-c2ccccc2)C1=O)N1CC[C@H](F)C1 [Example 307, 1-{2-[(3S)-3-fluoropyrrolidin-1-yl]-2-oxoethyl}-3-(1-phenyl-1H-indazol-4-yl)imidazolidin-2-one]
IC50 (human Nav1.7): 520 nM | IC50 (human Nav1.8): 1420 nM | OA MPE (%) ([1]; OA dose 30 mg/kg): 62%

CC(C)(C)OC(=O)N1CCN(c2cccc3c2cnn3-c2ccccc2F)C1=O [Example 2, tert-butyl 3-[1-(2-fluorophenyl)-1H-indazol-4-yl]-2-oxoimidazolidine-1-carboxylate]
SNL MPE (%) [2]: 38%

CC(C)OC(=O)N1CCN(c2cccc3c2cnn3-c2ccccc2F)C1=O [Example 4, isopropyl 3-[1-(2-fluorophenyl)-1H-indazol-4-yl]-2-oxoimidazolidine-1-carboxylate]
IC50 (human Nav1.7): 223 nM | IC50 (human Nav1.8): 230 nM | SNL MPE (%) [2]: 68%

Cc1cccc(-n2ncc3c(N4CCN(CC(=O)N5CC[C@H](F)C5)C4=O)cccc32)c1 [Example 56, 1-{2-[(3S)-3-fluoropyrrolidin-1-yl]-2-oxoethyl}-3-[1-(3-methylphenyl)-1H-indazol-4-yl]imidazolidin-2-one]
IC50 (human Nav1.7): 1830 nM | IC50 (human Nav1.8): 4630 nM | OA MPE (%) ([1]; OA dose 30 mg/kg): 70%

CCC1(O)CN(C(=O)CN2CCN(c3cccc4c3cnn4-c3ccccc3F)C2=O)C1 [Example 205, 1-[2-(3-ethyl-3-hydroxyazetidin-1-yl)-2-oxoethyl]-3-[1-(2-fluorophenyl)-1H-indazol-4-yl]imidazolidin-2-one]
IC50 (human Nav1.7): 778 nM | IC50 (human Nav1.8): 1500 nM | OA MPE (%) ([1]; OA dose 30 mg/kg): 46%

O=C(CN1CCN(c2cccc3c2cnn3-c2ccccc2F)C1=O)NC1(CO)CCC1 [Example 316, 2-{3-[1-(2-fluorophenyl)-1H-indazol-4-yl]-2-oxoimidazolidin-1-yl}-N-[1-(hydroxymethyl)cyclobutyl]acetamide]
IC50 (human Nav1.7): 3110 nM | IC50 (human Nav1.8): 1650 nM | OA MPE (%) ([1]; OA dose 30 mg/kg): 63%

O=C(CN1CCN(c2cccc3c2cnn3-c2ccccc2F)C1=O)N1CCC[C@@H](O)C1 [Example 52, 1-[1-(2-fluorophenyl)-1H-indazol-4-yl]-3-{2-[(3R)-3-hydroxypiperidin-1-yl]-2-oxoethyl}imidazolidin-2-one]
IC50 (human Nav1.7): 2490 nM | IC50 (human Nav1.8): 10100 nM | OA MPE (%) ([1]; OA dose 30 mg/kg): 27%

O=C1N(CC(=O)N2C[C@H]3C[C@@H]2CO3)CCN1c1cccc2c1cnn2-c1ccccc1F [Example 25, 1-[1-(2-fluorophenyl)-1H-indazol-4-yl]-3-{2-[(1R,4R)-2-oxa-5-azabicyclo[2.2.1]hept-5-yl]-2-oxoethyl}imidazolidin-2-one]
IC50 (human Nav1.7): 499 nM | IC50 (human Nav1.8): 8510 nM | OA MPE (%) ([1]; OA dose 10 mg/kg): 24%

CCS(=O)(=O)N1CC(N2CCN(c3cccc4c3cnn4-c3ccccc3F)C2=O)C1 [Example 51, 1-[1-(ethylsulfonyl)azetidin-3-yl]-3-[1-(2-fluorophenyl)-1H-indazol-4-yl]imidazolidin-2-one]
IC50 (human Nav1.7): 3100 nM | IC50 (human Nav1.8): 1140 nM | OA MPE (%) ([1]; OA dose 30 mg/kg): 16%

Cc1nc(CN2CCCN(c3cccc4c3cnn4-c3ccccc3F)C2=O)oc1C [Example 48, 1-[(4,5-dimethyl-1,3-oxazol-2-yl)methyl]-3-[1-(2-fluorophenyl)-1H-indazol-4-yl]tetrahydropyrimidin-2(1H)-one]
IC50 (human Nav1.7): 2010 nM | IC50 (human Nav1.8): 1140 nM | OA MPE (%) ([1]; OA dose 10 mg/kg): 20%

CC1(NC(=O)CN2CCN(c3cccc4c3cnn4-c3ccccc3F)C2=O)CC1 [Example 333, 2-{3-[1-(2-fluorophenyl)-1H-indazol-4-yl]-2-oxoimidazolidin-1-yl}-N-(1-methylcyclopropyl)acetamide]
IC50 (human Nav1.7): 2410 nM | IC50 (human Nav1.8): 4760 nM | OA MPE (%) ([1]; OA dose 30 mg/kg): 86%

NC(=O)CN1CCN(c2cccc3c2cnn3-c2ccccc2F)C1=O [Example 3, 2-{3-[1-(2-fluorophenyl)-1H-indazol-4-yl]-2-oxoimidazolidin-1-yl}acetamide]
SNL MPE (%) [2]: 30%

O=C(CN1CCCN(c2cccc3c2cnn3-c2ccccc2F)C1=O)N1CC[C@H](F)C1 [Example 23, 1-[1-(2-fluorophenyl)-1H-indazol-4-yl]-3-{2-[(3S)-3-fluoropyrrolidin-1-yl]-2-oxoethyl}tetrahydropyrimidin-2(1H)-one]
IC50 (human Nav1.7): 1470 nM | OA MPE (%) ([1]; OA dose 30 mg/kg): 45%

Cc1nnc(CN2CCN(c3cccc4c3cnn4-c3ccccc3F)C2=O)s1 [Example 40, 1-[1-(2-fluorophenyl)-1H-indazol-4-yl]-3-[(5-methyl-1,3,4-thiadiazol-2-yl)methyl]imidazolidin-2-one]
IC50 (human Nav1.7): 3150 nM | OA MPE (%) ([1]; OA dose 10 mg/kg): 41%
